Here are results for eight compounds from PubChem BioAssay (NCI).

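Test compounds were applied to cells in 96-well plates for 48 hours at 5 doses. The concentration for 50% growth inhibition is given as GI50. TGI: total growth inhibition.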

Some test systems named below: IGROV1 ovarian; NCI-H460 lung; MCF7 breast; ACHN renal; RXF 393 renal; TK-10 renal; EKVX NSCLC; DU-145 prostate; UACC-257 melanoma; CAKI-1 renal.
What all share (test): inhibition of tumour cell growth, NCI panel, 48 h

Turning to `COc1cc(/C=C2\CC3C4CCC5=CC(=O)CC[C@]5(C)C4CC[C@]3(C)C2=O)ccc1OCCN1CCCC1` (some centres undefined), the GI50 in the experiment on IGROV1 ovarian was 2.33 µM; in the experiment with NCI-H460 lung, 3.57 µM; in the experiment on MCF7 breast, 4.07 µM; with ACHN renal, 2.94 µM; with RXF 393 renal, 2.24 µM; with TK-10 renal, 1.51 µM. Besides, the GI50 in the experiment with EKVX NSCLC is 3.98 µM; in the experiment with DU-145 prostate, 3.76 µM; in the experiment with UACC-257 melanoma it was 2.5 µM; in the experiment on CAKI-1 renal, 2.89 µM. For the same compound, the TGI was 5.73 µM in the experiment with IGROV1 ovarian; greater than 37.5 µM in the experiment on NCI-H460 lung; greater than 45.3 µM with MCF7 breast; 9.16 µM in the experiment on ACHN renal; 5.41 µM in the experiment on RXF 393 renal; 3.92 µM in the experiment on TK-10 renal. Besides, the TGI came out at 17.3 µM with EKVX NSCLC, 16.8 µM with DU-145 prostate, 6.15 µM with UACC-257 melanoma and 10.5 µM with CAKI-1 renal.
Take `CC(C)[C@@]12C[C@@H](OC(=O)COC(=O)c3ccccc3)[C@@](C)(O1)[C@@H]1CC[C@@H](C)[C@H]1[C@@H]2OC(=O)/C=C/c1ccccc1`: the GI50 was greater than 100 µM with IGROV1 ovarian; greater than 100 µM with NCI-H460 lung; greater than 65 µM in the experiment with MCF7 breast; 0.0469 µM with ACHN renal; 0.284 µM with RXF 393 renal; greater than 100 µM in the experiment with TK-10 renal. For the same compound, the GI50 is greater than 100 µM in the experiment with EKVX NSCLC, greater than 100 µM in the experiment on DU-145 prostate, greater than 100 µM in the experiment with UACC-257 melanoma and 0.0812 µM in the experiment on CAKI-1 renal. Moreover, the TGI with IGROV1 ovarian was greater than 100 µM; in the experiment on NCI-H460 lung, greater than 100 µM; with MCF7 breast, greater than 100 µM; in the experiment with RXF 393 renal, greater than 8.44 µM; in the experiment on TK-10 renal, greater than 100 µM; in the experiment with EKVX NSCLC, greater than 100 µM. Also, the TGI is greater than 100 µM in the experiment with DU-145 prostate, greater than 100 µM in the experiment with UACC-257 melanoma and 2.87 µM with CAKI-1 renal.
As for `Cc1cc(O)ccc1C1(c2ccc(O)cc2C)OC(=O)c2ccccc21`, the GI50 with IGROV1 ovarian was 21 µM; in the experiment with NCI-H460 lung, 19.7 µM; with MCF7 breast it was 18.1 µM; with ACHN renal, 16 µM; in the experiment on RXF 393 renal it was 18.5 µM; in the experiment with TK-10 renal, 17 µM. Besides, the GI50 was 14.9 µM with EKVX NSCLC, 18 µM in the experiment on DU-145 prostate, 23.8 µM in the experiment on UACC-257 melanoma and 16 µM in the experiment with CAKI-1 renal. Besides, the TGI with IGROV1 ovarian turned out to be 47.5 µM; in the experiment with NCI-H460 lung it was 40.4 µM; in the experiment with MCF7 breast it was 36.5 µM; with ACHN renal, 31.8 µM; in the experiment on RXF 393 renal it was 33.9 µM; in the experiment on TK-10 renal, 30.8 µM. Further, the TGI amounted to 31 µM in the experiment with EKVX NSCLC, 31.9 µM with DU-145 prostate, 46 µM with UACC-257 melanoma and 30.1 µM with CAKI-1 renal.
As to `CCOC(=O)C1=C(C)NC2SC(=O)/C(=C\c3cccc(Cl)c3)N2C1c1ccccc1` (centres undefined), the GI50 in the experiment with IGROV1 ovarian is greater than 100 µM; with NCI-H460 lung it was greater than 100 µM; in the experiment with MCF7 breast it was 31.2 µM; with ACHN renal, greater than 100 µM; in the experiment on RXF 393 renal, greater than 100 µM; with TK-10 renal, greater than 100 µM. The GI50 with EKVX NSCLC, with DU-145 prostate, in the experiment on UACC-257 melanoma and with CAKI-1 renal was greater than 100 µM each time. Besides, the TGI with IGROV1 ovarian, in the experiment on NCI-H460 lung, in the experiment on MCF7 breast, in the experiment on ACHN renal, with RXF 393 renal and in the experiment with TK-10 renal was greater than 100 µM in each case. The TGI in the experiment on EKVX NSCLC, with DU-145 prostate, in the experiment on UACC-257 melanoma and with CAKI-1 renal was greater than 100 µM each time.
In the case of `Cc1nc2ccc(-n3ncc(C(=O)c4cc5ccccc5[nH]4)c3N)cc2[nH]1`, the GI50 with IGROV1 ovarian was 9.74 µM; with NCI-H460 lung, 2.39 µM; with MCF7 breast, 4.52 µM; with ACHN renal it was 5.73 µM; in the experiment with RXF 393 renal, 2.47 µM; with TK-10 renal, 18.4 µM. The GI50 in the experiment with EKVX NSCLC is 20.9 µM; in the experiment with DU-145 prostate, 13.1 µM; with UACC-257 melanoma, 26.6 µM; with CAKI-1 renal it was 7.16 µM. Further, the TGI with IGROV1 ovarian is greater than 100 µM; with NCI-H460 lung, 40.6 µM; in the experiment with MCF7 breast it was greater than 100 µM; in the experiment on ACHN renal, greater than 100 µM; in the experiment on RXF 393 renal, 15.7 µM; with TK-10 renal, greater than 100 µM. In addition, the TGI in the experiment with EKVX NSCLC, in the experiment on DU-145 prostate, in the experiment on UACC-257 melanoma and with CAKI-1 renal was greater than 100 µM each time.
Take `O=C(O)c1ccc(CSc2nc3ccccc3[nH]2)cc1`: the GI50 with IGROV1 ovarian, in the experiment with NCI-H460 lung, with MCF7 breast, in the experiment with ACHN renal, in the experiment with RXF 393 renal and in the experiment with TK-10 renal was greater than 100 µM each time. Moreover, the GI50 with EKVX NSCLC, in the experiment on DU-145 prostate, in the experiment with UACC-257 melanoma and with CAKI-1 renal was greater than 100 µM each time. In addition, the TGI in the experiment on IGROV1 ovarian, in the experiment on NCI-H460 lung, with MCF7 breast, in the experiment on ACHN renal, in the experiment with RXF 393 renal and in the experiment with TK-10 renal was greater than 100 µM throughout. In addition, the TGI with EKVX NSCLC, in the experiment on DU-145 prostate, with UACC-257 melanoma and with CAKI-1 renal was greater than 100 µM in each case.
Turning to `O=C(CCN1CCCCC1)c1csc2ccccc12`, the TGI with IGROV1 ovarian was greater than 100 µM; in the experiment with NCI-H460 lung, greater than 100 µM; in the experiment on MCF7 breast, 48.1 µM; in the experiment on ACHN renal, greater than 100 µM; with RXF 393 renal, greater than 100 µM; in the experiment with TK-10 renal, greater than 100 µM. Also, the TGI in the experiment with EKVX NSCLC, in the experiment on DU-145 prostate, in the experiment on UACC-257 melanoma and with CAKI-1 renal was greater than 100 µM each time.
For the compound `COc1cccc(C(=O)NNc2nc(Cl)nc(N3CCN(C(c4ccccc4)c4ccccc4)CC3)n2)c1`, the GI50 in the experiment with IGROV1 ovarian was 1.63 µM; in the experiment on NCI-H460 lung, 3.26 µM; with MCF7 breast it was 82.2 µM; with ACHN renal, 1.76 µM; with RXF 393 renal, 2.7 µM; in the experiment on TK-10 renal, 51 µM. Besides, the GI50 is 5.76 µM in the experiment on EKVX NSCLC, 4.3 µM in the experiment with DU-145 prostate, 3.06 µM with UACC-257 melanoma and 1.87 µM in the experiment on CAKI-1 renal. For the same compound, the TGI with IGROV1 ovarian is 3.07 µM; with NCI-H460 lung it was 12 µM; in the experiment on MCF7 breast it was greater than 100 µM; with ACHN renal, 3.16 µM; in the experiment on RXF 393 renal it was 8.28 µM; with TK-10 renal, greater than 100 µM. The TGI with EKVX NSCLC is 20 µM; with DU-145 prostate it was 15.3 µM; in the experiment on UACC-257 melanoma it was 11.7 µM; in the experiment with CAKI-1 renal, 4.31 µM.
